Laboratory results published in ChEMBL document CHEMBL1649162, “Fenticonazole activity measured by the methods of the European Committee on Antimicrobial Susceptibility Testing and CLSI against 260 Candida vulvovaginitis isolates from two European regions and annotations on the prevalent genotypes” (2009).
In brackets after ≈: the same amount, converted by molar mass.

Tests used:
Assay type in all cases: functional
Nakaseomyces glabratus [1] = test: Antimicrobial activity against Candida glabrata by EUCAST broth microdilution method
Nakaseomyces glabratus [2] = test: Antimicrobial activity against Candida glabrata by CLSI M27-A2 broth microdilution method
Candida albicans [3] = test: Antimicrobial activity against Candida albicans by EUCAST broth microdilution method
Candida albicans [4] = test: Antimicrobial activity against Candida albicans by CLSI M27-A2 broth microdilution method
Candida parapsilosis [5] = test: Antimicrobial activity against Candida parapsilosis ATCC 22019 by CLSI M27-A2 broth microdilution method; conditions: Lodderomyces parapsilosis
Candida parapsilosis [6] = test: Antimicrobial activity against Candida parapsilosis ATCC 22019 by EUCAST broth microdilution method; conditions: Lodderomyces parapsilosis
Pichia kudriavzevii [7] = test: Antimicrobial activity against Candida krusei ATCC 6258 by CLSI M27-A2 broth microdilution method
Pichia kudriavzevii [8] = test: Antimicrobial activity against Candida krusei ATCC 6258 by EUCAST broth microdilution method

SMILES | MIC50 (Nakaseomyces glabratus [1]) [µg/mL] | MIC50 (Nakaseomyces glabratus [2]) [µg/mL] | MIC50 (Candida albicans [3]) [µg/mL] | MIC50 (Candida albicans [4]) [µg/mL] | MIC50 (Candida parapsilosis [5]) [µg/mL] | MIC50 (Candida parapsilosis [6]) [µg/mL] | MIC50 (Pichia kudriavzevii [7]) [µg/mL] | MIC50 (Pichia kudriavzevii [8]) [µg/mL]
Clc1ccc(C(Cn2ccnc2)OCc2ccc(Sc3ccccc3)cc2)c(Cl)c1 (configuration not stated) [FENTICONAZOLE] | 0.03 (≈ 0.0659 µM) | 0.03 (≈ 0.0659 µM) | 0.03 (≈ 0.0659 µM) | 0.03 (≈ 0.0659 µM) | 0.03 (≈ 0.0659 µM) | 0.03 (≈ 0.0659 µM) | 0.06 (≈ 0.132 µM) | 0.06 (≈ 0.132 µM)
OC(Cn1cncn1)(Cn1cncn1)c1ccc(F)cc1F [FLUCONAZOLE] | 2 (≈ 6.53 µM) | 2 (≈ 6.53 µM) | 0.12 (≈ 0.392 µM) | 0.12 (≈ 0.392 µM) | 2 (≈ 6.53 µM) | 0.5 (≈ 1.63 µM) | 16 (≈ 52.2 µM) | 32 (≈ 104 µM)
CCC(C)n1ncn(-c2ccc(N3CCN(c4ccc(OCC5COC(Cn6cncn6)(c6ccc(Cl)cc6Cl)O5)cc4)CC3)cc2)c1=O (configuration not stated) [ITRACONAZOLE] | 0.03 (≈ 0.0425 µM) | 0.03 (≈ 0.0425 µM) | 0.03 (≈ 0.0425 µM) | 0.03 (≈ 0.0425 µM) | 0.06 (≈ 0.085 µM) | 0.06 (≈ 0.085 µM) | 0.12 (≈ 0.17 µM) | 0.03 (≈ 0.0425 µM)
CC(=O)N1CCN(c2ccc(OCC3COC(Cn4ccnc4)(c4ccc(Cl)cc4Cl)O3)cc2)CC1 (configuration not stated) [KETOCONAZOLE] | 2 (≈ 3.76 µM) | 0.5 (≈ 0.941 µM) | 0.12 (≈ 0.226 µM) | 0.12 (≈ 0.226 µM) | 0.12 (≈ 0.226 µM) | 0.12 (≈ 0.226 µM) | 0.25 (≈ 0.47 µM) | 0.12 (≈ 0.226 µM)
